Results taken from ChEMBL document CHEMBL1201862, “PubChem BioAssay data set” (2004).
Activity calls are given as the source filed them.

Key:
Major prion protein = Major prion protein (Homo sapiens, UniProt P04156); assay type: functional, cell-based
cells [1] = assay: cells
[2] = target: Histone-lysine N-methyltransferase NSD2 (Homo sapiens, UniProt O96028); assay type: biochemical
[3] = target: NAD-dependent protein deacylase sirtuin-5, mitochondrial (Homo sapiens, UniProt Q9NXA8); assay: SIRT5 desuccinylase inhibitors, dose response, biochemical, fluorescence imaging, cherry-pick, set 5 (AID 720591);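 further: desuccinylation of succinyl peptide AMC substrate read as fluorescence after trypsin release; potency of inhibitors that lower fluorescence and may act on trypsin instead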
[4] = Jurkat T cell cytotoxicity, dose response, cytotoxicity control for P. falciparum gametocyte viability project, luminescence (AID 1117277); assay type: functional, cell-based;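 further: potency reflects loss of cellular ATP meaning fewer viable cells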
[5] = P. falciparum late gametocyte killing, dose response, luminescence (AID 1117278); assay type: functional, cell-based;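 further: gametocytes exposed to compound for 24 hours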
[6] = target: RNA-editing ligase 1, mitochondrial (Trypanosoma brucei brucei, UniProt P86926); assay: TbREL1 ligase inhibitors, dose response, biochemical, fluorescence, Trypanosoma brucei (AID 1117295); assay type: functional
Kallikrein-7 = Kallikrein-7 (Homo sapiens, UniProt P49862); assay: Fluorescence Intensity-based biochemical primary high throughput dose response assay to identify activators of kallikrein-7 (K7) zymogen.
[7] = LGR2 antagonists, dose response, cell-based, HEK293, CRE-luciferase reporter, cherry pick, set 2 (AID 743343); assay type: functional;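 further: transfected cells were stimulated with diluted bursicon conditioned medium after compound addition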
[8] = HepG2 cell cytotoxicity, dose response, cytotoxicity control, plate reader, cherry-pick, antagonist series (AID 743416); assay type: functional, cell-based
[9] = MC4R antagonists, dose response, counter-screen for LGR2 antagonist project, cell-based, plate reader, cherry pick (AID 743444); assay type: functional;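 further: transfected HEK 293 cells stimulated with alpha-MSH peptide; potency of inhibitors of the alpha-MSH evoked signal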
[10] = A549 cell cytotoxicity, dose response, cytotoxicity control, plate reader, cherry-pick, antagonist series (AID 743412); assay type: functional, cell-based
[11] = cytotoxicity in OVCAR4 cells, dose response, cytotoxicity control for PAX8 inhibitor project, cell-based, plate reader, dry powder, SA11 (AID 743150); assay type: functional; conditions: OVCAR-4
[12] = cytotoxicity dependent on PAX8, dose response, cell-based, plate reader, dry powder (AID 743049); assay type: functional
[13] = cytotoxicity in COV362 ovarian cancer cells, dose response, cytotoxicity control for PAX8 inhibitor project, cell-based, plate reader, dry powder, SA12 (AID 743144); assay type: functional
[14] = P. falciparum Dd2 growth inhibitors, dose response, SYBR Green, dry powder samples (AID 1159566); assay type: functional, cell-based;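 further: potency for growth inhibition with lower SYBR green DNA signal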
[15] = cytotoxicity in COV434 cells, dose response, cytotoxicity control for PAX8 inhibitor project, cell-based, plate reader, dry powder, SA7 (AID 743145); assay type: functional
[16] = P. falciparum Dd2 growth inhibitors, dose response, SYBR Green, cherry-picked samples (AID 1159567); assay type: functional, cell-based
[17] = P. falciparum 3D7-ScDHODH growth inhibitors, dose response, SYBR Green, dry powder samples (AID 1159570); assay type: functional, cell-based;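 further: parasite growth measured after 72 hours of compound exposure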
Paired box protein Pax-8 = Paired box protein Pax-8 (Homo sapiens, UniProt Q06710); assay: inhibitors of PAX8-driven TPO luciferase reporter, dose response, RMG-I cells, cherry-pick (AID 687027); assay type: functional, cell-based;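 further: luciferase reporter driven by Pax8 target thyroperoxidase promoter measured by SteadyGlo luminescence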
[18] = PAX5 activity inhibitors, dose response, selectivity assay for PAX8 inhibitor project, cell-based, plate reader, dry powder samples (AID 743047); assay type: functional;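 further: HEK293 cells carrying a Pax5 driven CD19 promoter luciferase reporter; potency of inhibitors that lower reporter luminescence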
[19] = P. falciparum ATP4 D1247Y mutant growth inhibitors, dose response, NITD609-resistant line, SYBR Green, dry powder (AID 1159571); assay type: functional, cell-based;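 further: parasites synchronized at ring stage by sorbitol before testing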
[20] = PAX2 cell-based inhibition, dose response, selectivity assay for PAX8 inhibitor project, plate reader, dry powder samples (AID 743048); assay type: functional;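 further: HEK293 cells carrying a WT1 promoter luciferase reporter driven by expressed Pax2; potency is for inhibition of Pax2 driven reporter signal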
[21] = NIH:OVCAR-3 ovarian cancer cell cytotoxicity, dose response, PAX8 inhibitor project, plate reader, dry powder samples (AID 743044); assay type: functional, cell-based
[22] = cytotoxicity in OVCAR8 ovarian cancer cells, dose response, PAX8 project, cell-based, plate reader, dry powder samples (AID 743197); assay type: functional; conditions: OVCAR-8
[23] = IGROV1 ovarian cancer cell cytotoxicity, dose response, PAX8 inhibitor project, plate reader, dry powder samples (AID 743043); assay type: functional, cell-based; conditions: IGROV-1
[24] = non-specific cell cytotoxicity, dose response, cytotoxicity control for PAX8 inhibitor project, plate reader, dry powder samples (AID 743021); assay type: functional, cell-based
[25] = IOSE-T80 ovarian epithelial cell cytotoxicity, dose response, cytotoxicity control for PAX8 inhibitor project, plate reader, dry powder samples (AID 743045); assay type: functional, cell-based
[26] = T. cruzi growth inhibition in host cells, dose response, cell-based, plate reader, dry powder, set 2 (AID 652275); assay type: functional
[27] = HepG2 cell cytotoxicity, dose response, cytotoxicity control, cherry-picks, set 5 (AID 1053118); assay type: functional, cell-based
cells [28] = assay: cells; remark: listed apart in the source
[29] = target: T1, Voltage-gated N-type calcium channel alpha-1B subunit/Amyloid beta A4 precursor protein-binding family A member 1 (Homo sapiens, UniProt Q00975+Q02410); assay type: protein assay
Albumin = Albumin (Bos taurus, UniProt P02769); assay: Counterscreen for inhibitors of T-cell receptor (TCR)-CD3 interaction: Fluorescence-based biochemical high throughput dose response assay to identify inhibitors of T-cell receptor (TCR)-CD3 interaction using a TAMRA-labeled BSA probe.; assay type: functional
[30] = target: T1, Voltage-gated N-type calcium channel alpha-1B subunit/Amyloid beta A4 precursor protein-binding family A member 1; assay type: protein assay; remark: listed apart in the source
[31] = target: T2, Zinc finger protein mex-5 (Caenorhabditis elegans, UniProt Q9XUB2); assay: MEX-5/TCR-2 RNA interaction inhibitors, dose response, biochemical, C. elegans, fluorescence polarization (AID 1960)
T2 sequence (Q9XUB2 whole entry): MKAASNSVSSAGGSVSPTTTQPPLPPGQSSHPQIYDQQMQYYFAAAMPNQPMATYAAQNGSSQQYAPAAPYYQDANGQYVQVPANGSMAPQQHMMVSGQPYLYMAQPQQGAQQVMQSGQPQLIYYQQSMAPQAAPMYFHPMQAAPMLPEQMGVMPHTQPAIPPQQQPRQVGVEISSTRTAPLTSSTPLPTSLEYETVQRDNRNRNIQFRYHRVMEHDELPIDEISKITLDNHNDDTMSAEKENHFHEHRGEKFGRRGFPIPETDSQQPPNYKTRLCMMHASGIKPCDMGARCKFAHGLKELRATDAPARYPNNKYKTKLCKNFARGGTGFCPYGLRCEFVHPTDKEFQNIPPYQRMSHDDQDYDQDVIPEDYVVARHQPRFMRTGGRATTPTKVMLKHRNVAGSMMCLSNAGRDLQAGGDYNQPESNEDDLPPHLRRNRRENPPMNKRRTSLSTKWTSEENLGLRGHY

[32] = P. falciparum Dd2 growth inhibitors, dose response, SYBR Green, dry powder samples, set 9 (AID 1159568); assay type: functional, cell-based
[33] = HepG2 cell cytotoxicity, dose response, cytotoxicity control, cherry-picked samples (AID 1159577); assay type: functional, cell-based
[34] = HepG2 cell cytotoxicity, dose response, cytotoxicity control, plate reader, dry powder samples (AID 1159569); assay type: functional, cell-based;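 further: inhibitor potency with signal falling toward the positive control level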

With `CCOC(=O)CSc1nc(-c2ccccc2)nc2ccc(F)cc12` the IC50 (Major prion protein) was 1.97 µM (active) and the IC50 (cells [1]) was > 138 µM (inactive).

With `CCOc1ccc2[nH]c3c(NCCN(CC)CC)ncnc3c2c1` the AC50 [2] was 3.43 µM (active).

For `CCCCC[C@H]1CN(Cc2ccccc2)C(=O)[C@@H]1CC(=O)NCc1ccccc1`, the AC50 [3] was 14.9 µM (active).

In the case of `Cc1nnc(NC(=O)c2ccc(S(=O)(=O)N3CCc4ccccc4C3)cc2)o1`, the IC50 [4] is reported as 80.6 µM (inactive) and the IC50 [5] is reported as > 109 µM (inactive).

With `Cc1ccc(C(C)C)c(OCCNCCc2ccccc2)c1` the IC50 [6] was > 96.6 µM (inactive).

With `Cc1ccc2nc(N3C(=O)C(O)=C(C(=O)c4ccc(C)o4)C3c3ccc(O)cc3)sc2c1` (centres undefined) the AC50 [3] was 15.1 µM (active).

In the case of `CN1CCN(C(=O)c2cc3nc(-c4ccco4)cc(C(F)(F)F)n3n2)CC1`, the EC50 (Kallikrein-7) is reported as 11.3 µM (inactive).

In the case of `COc1ccc2nc(-c3ccccn3)ccc2c1`, the AC50 [7] is reported as 9.32 µM (active), the AC50 [8] is reported as 29.3 µM (active) and the AC50 [9] is reported as 13.4 µM (active). For the same compound, the AC50 [10] was > 52 µM (inactive).

In the case of `C=C(C)Cn1c2ccc(NC(=O)NCCc3cccs3)cc2c(=O)n1C`, the EC50 (Kallikrein-7) is reported as > 7.72 µM (active).

For `Cc1cc(C)c2nc(SC3CCOC3=O)cc(C)c2c1` (centres undefined), the IC50 (Major prion protein) was 3.66 µM (active) and the IC50 (cells [1]) was > 138 µM (inactive).

With `CCCC#Cc1ccc([C@H]2[C@@H](CO)N(C(=O)C3CCCCC3)[C@H]2C#N)cc1` the AC50 [11] was 22.8 µM (active), the AC50 [12] was 12.2 µM (active) and the AC50 [13] was 0.0864 nM (active). The AC50 [14] was 0.541 µM (active), the AC50 [15] was 0.000367 µM (active) and the AC50 [16] was 1.42 µM (active). For the same compound, the AC50 [17] was 0.996 µM (active), the AC50 (Paired box protein Pax-8) was 1.55 µM (active) and the AC50 [18] was 19.2 µM (active). The AC50 [19] was 2.55 µM (active) and the AC50 [20] was 26.7 µM (active).

For `COc1cccc(S(=O)(=O)N2C[C@@H]3N[C@H](C2)[C@@H]3c2ccc(/C=C/c3ccccc3)cc2)c1`, the AC50 [21] was 40.8 µM (active), the AC50 [22] was 48.9 µM (active) and the AC50 [23] was 58 µM (active). The AC50 (Paired box protein Pax-8) was 9.43 µM (active), the AC50 [24] was 33.7 µM (active) and the AC50 [25] was 36.1 µM (active).

With `CN(C)C(=O)c1cccc(-c2ccc([C@H]3[C@H](CO)N4CCCCN(C(=O)C5CCC5)C[C@@H]34)cc2)c1` the AC50 [26] was 0.296 µM (active).

With `C[C@H]1CN([C@@H](C)CO)C(=O)c2cc(NC(=O)CCCN(C)C)ccc2O[C@H]1CN(C)Cc1ccc(-c2ccccc2)cc1` the AC50 [27] was 44.9 µM (active).

In the case of `CCOC(=O)c1cc2c(=O)n3ccccc3nc2n(CCCOC)/c1=N\C(=O)c1ccncc1`, the AC50 (cells [28]) is reported as 8.47 µM (active).

In the case of `COc1ccc(C(=O)Nc2nnc(CC(=O)N/N=C/c3ccc(O)cc3O)s2)cc1`, the IC50 [29] is reported as 2.33 µM (active), the IC50 (Albumin) is reported as > 94.1 µM (inactive) and the IC50 [30] is reported as 19.8 µM (active). For the same compound, the EC50 [31] was > 300 µM (not active).

In the case of `COC(=O)C1=C(C)N(Cc2ccc(C(F)(F)F)cc2)C(NCc2ccccc2C(F)(F)F)=NC1c1ccc(F)cc1` (centres undefined), the IC50 [6] is reported as > 96.6 µM (inactive).

For `C[C@@H]1CN([C@H](C)CO)C(=O)c2cc(N(C)C)ccc2O[C@@H](C)CCCCO[C@H]1CN(C)S(=O)(=O)c1ccc(F)cc1`, the AC50 [32] was 10.5 µM (active).

For `OC[C@@H]1Nc2ccc(C#Cc3ccc(F)cc3)cc2[C@H]2NCC[C@@H]12`, the AC50 [14] was 0.822 µM (active), the AC50 [33] was 25.1 µM (active) and the AC50 [34] was 32.6 µM (active). The AC50 [16] was 2.36 µM (active), the AC50 [17] was 1.15 µM (active) and the AC50 [19] was 1.42 µM (active).

With `COc1ccc2c3c(n(C)c2c1)[C@H](CO)N(Cc1ccc2c(c1)OCO2)CC31CN(C(=O)c2ccc3c(c2)OCO3)C1` the AC50 [32] was 0.236 µM (active), the AC50 [14] was 0.13 µM (active) and the AC50 [34] was > 100 µM (inactive). The AC50 [16] was 0.54 µM (active), the AC50 [17] was 0.141 µM (active) and the AC50 [19] was 0.147 µM (active).
